Measurements: US6482609B1, “Isolated human EDG-4 receptor and polynucletide encoding said receptor” (priority 1997, dated 2002)

Columns and labels:
HeLa cells = test: IL-8 ELISA on supernatants of treated HeLa cells; type: cell-based, human; settings: for PTX sensitivity of the IL-8 response: PTX 50 ng/ml overnight pre-treatment; for IL-8 induction: concentration series up to 10 μM, 6 hours
Procedure: Procedure #1 For HeLa Cells
Cells: HeLa (adenocarcinoma, human)
Media: DMEM/F12+10%FBS adherent
1) Cells were seeded at 0.2×10^6 cells/well in 6-well plates.
2) 1.5 ml 0.5% FBS media was added to each well.
1) Made up all required solutions in 0.5% FBS media (control). Handling of […] for use in NF-κB experiments requires that sonication, commonly used to resuspend LPA, not be done; NF-κB may be activated by lipid peroxides created through vigorous frothing.
3) 1.5 ml appropriate treatments were added to each well.
5) After the specified time cell supernatants were collected into 1.5 ml eppendorf tubes, spun down at 14000 rpm for 5 minutes and stored at −20° C. for later ELISA determination.
D. Detection of Interleukin-8 (IL-8) using an IL-8 ELISA (Enzyme-Linked InimunoSorbent Assay).
1) The Quantikine Human IL-8 ImmunoAssay Kit was obtained from R&D Systems (Cat. D8050).
4) The assay procedure was followed as recommended in the kit for cell culture supernatant samples.
5) ELISA was performed on 50 μl samples of culture supernatant and duplicate samples were measured for each well. Each treatment was performed on triplicate wells.
6) Plates were read on UVmax kinetic microplate reader (Molecular Devices), set to 450 nm and correction set to 575 nm, using Wsoftmax software version 2.34.
Procedure #2 For HeLa Cells
1) Cells were seeded at 2.5×10^4 cells/well in 24-well plates.
2) 0.5 ml 0.5% FBS media was added to all wells not requiring PTX pre-treatment.
3) For wells requiring PTX; 0.5 ml 0.5% FBS media containing 50 ng/ml PTX (1 volume PTX (RBI Cat. P140): 1 volume DTT, incubate 37° C. for 30 minutes then dilute to 50 ng/ml) was added.
Follow Procedure #2 For HeLa Cells with the following exceptions:
Concentrations for LPC, LPE, LPG, LPS, sphingosine and SM used were 10, 50, 100, 1000, and 5000 nM. Concentrations for LPI, lyso-PAF and lysosulfatide used were 0.3 and 3 μM.
2) A 30 minute pre-treatment at 37° C./5%CO2 of 0.5 ml of suramin was done to all wells except control, any PTX and ET-18-OCH3 wells before step 3 of section C.

human EDG-4 [1] = biological target: T1, human EDG-4 (Homo sapiens, UniProt O95136); test: NF-κB luciferase reporter in 293-EBNA cells, human EDG-4; type: cell-based; settings: human EDG-4 (pC3-hedg4#36); 3 μM; 6 hours
Procedure: Transient Transfection Protocol for 293-EBNA (Assay 3): The protocol described in Example 11 for Assay 1 was followed except for the following changes: […] 3) 30 μl Lipofectamine Reagent (Lipofectamine Plus Kit) was diluted in 750 μl DMEM/F12. The diluted Lipofectamine was then combined with the DNA/Plus mixture and incubated at room temperature for 15 min. […] 2) Transfected cells were harvested by trypsinization and 50,000 cells per well were plated in 96-well Blackview plates coated with poly D-lysine (Becton Dickinson Labware, Cat. 40640). No cells were plated in the outside wells of the 96-well plate. […] 1) Media was removed and cells treated with compounds diluted in DMEM/F12 media. The following treatments were used for all transfections: […] 2) The cells were treated for 6 hours. 3) Luciferase assay was performed.

human EDG-4 [2] = biological target: T1, human EDG-4; test: SRE luciferase reporter in 293-EBNA cells, human EDG-4; type: cell-based; settings: for Agonist character at EDG-4: conclusion from the reporter assay of Table 2; for Rank (EMax): rank of efficacy among compounds tested
Procedure: NE-κB activates gene expression by binding to specific DNA sequences found in the promoters of genes regulated by this inflammation-related transcription factor. […] The SRE reporter was identical to the NF-κB reporter, except that the NF-κB binding sites were replaced with 2 SRE sites. The new reporter was called 2XSREtk-p4Luc-zeo.
(§1) The protocol described in Example 11 for Assay 1 was followed except for the following changes:
(§2) 2) SRE Cotransfection: 0.5 μg of 2XSREtk-p4Luc-zeo reporter DNA and 3.5 μg pcDNA3, EDG-1, EDG-3 (pC3-hE3HP2, different from the clone used in Assay 2 of Example 11) or the newly cloned human EDG-4 (pC3-hedg4#36); NF-κB Cotransfection: 2 μg 6XNFκBtk-p4Luc-zeo reporter DNA and 2.0 μg pcDNA3, EDG-1, EDG-3 (pC3-hE3HP2), or EDG-4 (pC3-hedg4#36). Expression plasmid and reporter plasmid DNA samples were combined and diluted in 750 μl of DMEM/F12 (serum free media) and 20 μl Plus Reagent (Lipofectamine Plus Kit, Life Technologies Cat. 10964-013), and incubated at room temperature for 15 min.
(§3) 1) Media was removed and cells treated with compounds diluted in DMEM/F12 media.
(§4) 2) The cells were treated for 6 hours.
(§5) 3) Luciferase assay was performed.
Transfection was accomplished using the Lipofectamine Plus kit (Life Technologies, Cat. 10964-013), using the manufacturer's recommended conditions.
Transfection of EDG-4, expression, pretreatment and treatment of 293-EBNA cells expressing recombinant human EDG-4 was carried out essentially as described in “Example 11. […] Results were tabulated in Microsoft Excel, and analyzed with GraphPad Prism software. […] The luciferase response was expressed as fold response, after subtracting any endogenous response in pcDNA3-transfected cells at a given concentration of compound.

rat edg4 = rat edg4 (Rattus norvegicus, UniProt P47752); test: NF-κB-tk-p4Luc luciferase reporter in 293-EBNA cells, rat EDG-4; type: cell-based; set-up: expressed in transfected cells; host or cells: 293-EBNA
Procedure: Monolayer Transient Transfection Protocol for 293-EBNA
1) 150 mm plates of 293-EBNA obtained from Invitrogen (Cat. R620-07) with a confluency of ˜80% were used for transfection.
2) 6.6 μg NF-κB-tk-p4Luc reporter DNA and 6.6 μg of pC3-redg4 (expressing rat EDG-4), or pcDNA3 DNA was diluted in 500 μl OPTI-MEM (Gibco; Cat. 31985-062)
3) 96.8 μl Lipofectamine (Gibco; Cat. 18324-020) was diluted in 500 μl of OPTI-MEM.
6) 6 ml OPTI-MEM was added to each transfection tube and this was added to a plate of 293-EBNA cells. The plates were left for 4 hrs at 37° C. in a 5% CO2 incubator.
2) 0.02×10^6 cells were plated per well of a 96-well Blackview plate coated with polyD-lysine. No cells were plated in the outside wells of the 96well plate. Two 96-well plates were seeded for each transfection.
1) Cells were washed with PBS and 140 μl serum-free media (SFM) added to each well. Plates were incubated in 37° C. incubator for 6 hrs.
2) After 6 hrs, media was removed and cells treated with compounds diluted in 0.5% FBS media (140 μl added to each well).
3) Cells were treated for 24 hrs.
1) Luclite kit (Packard; Cat. 6016911) was used for luciferase assay. All reagents were brought to room temperature before use.
3) 50 μl 0.5M HEPES pH 7.8 buffer (1 mM MgCl2, 1 mM CaCl2) was added to all wells of 96-well plate. Black adhesive backing (Polyfitronics) was aligned to the bottom of the viewplate.
4) Luclite substrate was made up by adding 10 ml substrate diluent to 1 vial lyophilized substrate. Reconstituted substrate was kept under a dark container. 50 μl substrate was added to each well.
7) After incubation, plates were counted in a 12-detector Packard Top Count on a program without dark delay.
The above protocol for assay 1 was followed except for the following changes:
1) 0.01×10^6 cells were plated per well of a 96-well Blackview plate coated with polyD-lysine. No cells were plated in the outside wells of the 96-well plate.

human EDG-3 = test: NF-κB luciferase reporter in 293-EBNA cells, EDG-3; type: cell-based; settings: for NF-κB response, original human EDG-3 clone: original human EDG-3 clone (pC3-hedg3)
Procedure: 2) 3 μg NFκB-tk-p4Luc reporter DNA and 3 μg pC3-hedg1, pC3-hedg3, pC3-redg4, pC3-hedg5 or pcDNA3 DNA was diluted in 240 μl OPTI-MEM (Gibco; Cat. 31985-062)
Transient Transfection Protocol for 293-EBNA (Assay 3):
as §1, §2
3) 30 μl Lipofectamine Reagent (Lipofectamine Plus Kit) was diluted in 750 μl DMEM/F12. The diluted Lipofectamine was then combined with the DNA/Plus mixture and incubated at room temperature for 15 min.
6) The transfection medium was replaced with serum-free DMEM/F12 for cells transfected with 2XSREtk-p4Luc-zeo reporter DNA and with DMEM/F12 plus 10% FBS for cells tansfected with 6XNFκBtk-p4Luc-zeo reporter DNA.
2) Transfected cells were harvested by trypsinization and 50,000 cells per well were plated in 96-well Blackview plates coated with poly D-lysine (Becton Dickinson Labware, Cat. 40640). No cells were plated in the outside wells of the 96-well plate.
1) Media for cells transfected with 6XNFκBtk-p4Luc-zeo reporter DNA was replaced with DMEM/F12 plus 0.5%FBS.
as §3, §4, §5

rat edg4, sequence (P47752 whole entry): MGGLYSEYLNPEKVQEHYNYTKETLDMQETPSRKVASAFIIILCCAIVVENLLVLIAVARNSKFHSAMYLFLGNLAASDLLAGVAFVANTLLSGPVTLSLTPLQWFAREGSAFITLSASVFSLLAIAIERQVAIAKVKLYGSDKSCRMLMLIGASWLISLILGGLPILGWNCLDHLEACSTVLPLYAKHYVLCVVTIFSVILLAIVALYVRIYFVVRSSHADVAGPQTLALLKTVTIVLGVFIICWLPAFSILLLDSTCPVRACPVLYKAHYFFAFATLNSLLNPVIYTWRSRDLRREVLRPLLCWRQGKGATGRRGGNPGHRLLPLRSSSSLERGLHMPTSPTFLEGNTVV

SMILES | IL-8 production at 0.3 μM (HeLa cells; 0.3 μM, 6 hr) | IL-8 response (HeLa cells; 1 and 10 μM, 1, 6 or 24 hours) | PTX sensitivity of the IL-8 response (HeLa cells) | IL-8 induction (HeLa cells) | Lowest concentration that reliably induces IL-8 (HeLa cells; repeated experiments) | Induction of the NF-κB reporter gene (human EDG-4 [1]) [fold] | Agonist character at EDG-4 (human EDG-4 [2]) | Rank (EMax) (human EDG-4 [2]) | Increase in luciferase activity (NF-κB reporter) (rat edg4; pC3-redg4, 1 μM, 24 hrs) [fold] | Increase in luciferase activity (NF-κB reporter) (rat edg4; pC3-redg4, 3 μM, Assay #2) [fold] | Increase in luciferase activity (NF-κB reporter) (rat edg4; pC3-redg4, 5 μM or 10 μM, 24 hrs) | NF-κB response, original human EDG-3 clone (human EDG-3) | EC50 (human EDG-4 [2]; 293-EBNA expressing human EDG-4, luciferase after 6 hr, pcDNA3 response subtracted) [nM] | Induction of the SRE reporter gene (human EDG-4 [2]; pC3-hedg4#36, 3 μM SPC, 6 hr, Example 15A) [fold] | EMax (Percent) (human EDG-4 [2]; relative efficacy, 6 hr) [%] | PTX sensitivity of NF-κB reporter response (rat edg4; pC3-redg4, Assay #1) | NF-κB reporter induction (qualitative) (rat edg4; pC3-redg4, Assay #1, 24 hrs) | Induction of the NF-κB reporter gene compared to untreated controls (human EDG-3; EDG-3 clone pC3-E3HP2, 3 μM, 6 hours)
CCCCCCCCCCCCC/C=C/[C@@H](O)[C@@H](N)COP(=O)(O)O [S1P, sphingosine-1-phosphate] | near plateau values | time- and concentration-dependent IL-8 response | PTX-sensitive | induce IL-8 in HeLa cells in a concentration-dependent manner | about 30 nM | 4.5 | full agonists | 2 | 2 | 3.5 | 4-4.5 fold | did not produce a NF-κB response |  |  |  |  |  | 
CCCCCCCCCCCCC/C=C/[C@@H](O)[C@@H](N)COP(=O)([O-])OCC[N+](C)(C)C [SPC, sphingosylphosphorylcholine] |  |  | PTX-sensitive | induce IL-8 in HeLa cells in a concentration-dependent manner |  | 9 | full agonists | 1 |  | 4 |  | did not produce a NF-κB response | 880 | 26.3 | 100 | PTX-sensitive | induced the reporter gene in EDG-4 expressing cells | about 8 fold
